Laboratory results published in ChEMBL document CHEMBL1914442, “Metabolism-directed design of oxetane-containing arylsulfonamide derivatives as γ-secretase inhibitors” (J Med Chem, 2011).

Experiments:
[1] = Apparent permeability from apical to basolateral side of dog RRCK cells by transwell assay; format: ADME, cell-based, Canis lupus familiaris, MDCKII-LE; settings: MDCK
physchem = settings: octanol/water, pH 7.4
[2] = Oral bioavailability in mouse; format: ADME, organism-based; settings: in vivo
[3] = Oral bioavailability in rat; format: ADME, organism-based; settings: in vivo
[4] = Drug uptake in wild-type mouse 129/sve cerebrospinal fluid at 100 mg/kg, sc administered as a single dose measured 1 hr post-dose by LC-MS analysis; format: ADME, organism-based; set-up: dose 100 mg/kg, route subcutaneous; settings: read-out: Drug uptake
[5] = Drug uptake in wild-type mouse 129/sve cerebrospinal fluid at 100 mg/kg, sc administered as a single dose measured 4 hr post-dose by LC-MS analysis; format: ADME, organism-based; set-up: dose 100 mg/kg, route subcutaneous; settings: read-out: Drug uptake

Compound	Papp A→B [1] [×10⁻⁶ cm/s]	logD (physchem)	bioavailability [2] [%]	bioavailability [3] [%]	concentration at 1 h [4] [nM]	concentration at 4 h [5] [nM]
NC(=O)[C@@H](CCC(F)(F)F)N(C[C@H]1CCCCO1)S(=O)(=O)c1ccc(Cl)cc1	13.4	4.3				
NC(=O)[C@@H](CCC(F)(F)F)N(C[C@@H]1CCCCO1)S(=O)(=O)c1ccc(Cl)cc1	15.4	4.3				
NC(=O)[C@@H](CCC(F)(F)F)N(C[C@@H]1COCCO1)S(=O)(=O)c1ccc(Cl)cc1	27.3	2.75				
NC(=O)[C@@H](CCC(F)(F)F)N(C[C@H]1COCCO1)S(=O)(=O)c1ccc(Cl)cc1	20.6	2.75				
CC1(C)CO[C@@H]1CN([C@H](CCC(F)(F)F)C(N)=O)S(=O)(=O)c1ccc(Cl)cc1	22.3	3.9				
CC1(C)CO[C@H]1CN([C@H](CCC(F)(F)F)C(N)=O)S(=O)(=O)c1ccc(Cl)cc1	26.4	3.8				
CC1(C)C[C@H](CN([C@H](CCC(F)(F)F)C(N)=O)S(=O)(=O)c2ccc(Cl)cc2)O1	18.1	3.8				
NC(=O)[C@@H](CCC(F)(F)F)N(C[C@@H]1CCO1)S(=O)(=O)c1ccc(Cl)cc1	34.9	2.6	< 5	< 5	447	59.6
C[C@H]1C[C@@H](CN([C@H](CCC(F)(F)F)C(N)=O)S(=O)(=O)c2ccc(Cl)cc2)O1	21.8					
C[C@@H]1C[C@@H](CN([C@H](CCC(F)(F)F)C(N)=O)S(=O)(=O)c2ccc(Cl)cc2)O1	21.2					
CC1(C)C[C@@H](CN([C@H](CCC(F)(F)F)C(N)=O)S(=O)(=O)c2ccc(Cl)cc2)O1	14.9	3.8	< 5	< 5		
NC(=O)[C@@H](CCC(F)(F)F)N(C[C@H]1CCO1)S(=O)(=O)c1ccc(Cl)cc1	28.7	2.6				

Continued, values first:

Papp A→B [1] [×10⁻⁶ cm/s]	logD (physchem)	bioavailability [2] [%]	bioavailability [3] [%]	concentration at 1 h [4] [nM]	concentration at 4 h [5] [nM]	Compound
6.01	5.15					NC(=O)[C@@H](CCC(F)(F)F)N(CC1CCCC1)S(=O)(=O)c1ccc(Cl)cc1
22.4	3.5					NC(=O)[C@@H](CCC(F)(F)F)N(C[C@@H]1CCCO1)S(=O)(=O)c1ccc(Cl)cc1
25.4	2.5	< 5	< 5			NC(=O)[C@@H](CCC(F)(F)F)N(CC1COC1)S(=O)(=O)c1ccc(Cl)cc1
26.3	3.5					NC(=O)[C@@H](CCC(F)(F)F)N(CC1CCOCC1)S(=O)(=O)c1ccc(Cl)cc1
18.2	3.6					NC(=O)[C@@H](CCC(F)(F)F)N(C[C@H]1CCCOC1)S(=O)(=O)c1ccc(Cl)cc1
4.42						NC(=O)[C@@H](CCC(F)(F)F)N(CC1CCCCC1)S(=O)(=O)c1ccc(Cl)cc1
21.7	2.8					NC(=O)[C@@H](CCC(F)(F)F)N(C[C@H]1CCOC1)S(=O)(=O)c1ccc(Cl)cc1
18.4	3.7					NC(=O)[C@@H](CCC(F)(F)F)N(C[C@@H]1CCCOC1)S(=O)(=O)c1ccc(Cl)cc1
20.5	2.8					NC(=O)[C@@H](CCC(F)(F)F)N(C[C@@H]1CCOC1)S(=O)(=O)c1ccc(Cl)cc1
19.1	3.6					NC(=O)[C@@H](CCC(F)(F)F)N(C[C@H]1CCCO1)S(=O)(=O)c1ccc(Cl)cc1
11.1						NC(=O)[C@@H](CCC(F)(F)F)N(CC1CCC1)S(=O)(=O)c1ccc(Cl)cc1
